# Test results as given in patent publication US6537744B1, “Use of biomarkers in saliva to evaluate the toxicity of agents and the function of tissues in both biomedical and environmental applications” (priority 1995, dated 2003).
# Biological target: saliva enzymes (esterase activity)
# Assay: Inhibition of saliva enzymes (esterase activity) for detection of chemicals in water
# Assay type: biochemical, human
# Experimental: The presence of chemicals in milk, water, urine and other biological fluids are detected using saliva enzymes. The detection limit for the chemicals depends on the chemical potency and the number of chemicals present in the sample. The data presented here using saliva enzymes indicates a remarkably low concentration of des N-isofenphos (DNIO) in water (3 ng/mL) is detectable using the saliva enzyme method. A 50% inhibition of esterase activity is produced at 3 ng/mL DNIO. In this procedure, the sample is passed through […] solid phase absorption column (C-18) to extract and concentrate the chemicals as described by Knaak et al. (1993). The retention of the chemicals on C-18 column depends on their lipid solubility. The non-polar compounds usually have the highest retention. Then, the chemical is eluted with 1 mL of alcohol. A 0.1 mL of the elute is tested for the inhibition of saliva enzymes as described in this application. Toxicants in solid environmental samples, fruit and vegetables can be extracted with water or proper solvent. Samples of the extract are tested for enzymes inhibition. The inhibition of saliva enzyme indicates the presence of toxicant(s) in the sample and further analysis is needed to identify the specific chemical(s).
compound,measurement,value
"CCOP(N)(=O)Oc1ccccc1C(=O)OC(C)C (stereo not shown) [DNIO, des N-Isofenphos-oxon]",concentration producing 50% inhibition of esterase activity,3 ng/mL
